Measured values reported in patent US10167299B2, “1-(3-aminopropyl) substituted cyclic amine compounds, preparation method therefor, and pharmaceutical compositions and uses thereof” (SHANGHAI INSTITUTE OF MATERIA MEDICA, CHINESE ACADEMY OF …, priority 2013, dated 2019).
Read-outs that look alike come from different tables or passages of the source.

Legend:
CCR5 protein = assay: Thermal stability of protein test (CPM-assay); assay type: binding; details: for Tm (° C.): thermal stability of CCR5 protein with compound, CPM dye; for protein stability effect in words, versus positive control compound: conclusion from Table 2
Excerpt: Experimental theory: many cysteines are present in CCR5 protein sequence. Cysteines located in loop region form disulfide bonds to stabilize the tertiary structure of the protein. Some free cysteines in reduced state are located in the transmembrane region. Under excitation by incident light of 387 nm, the combination of free sulfhydryl and fluorescent dye CPM can emit excitation light of 436 nm. […] The free sulfhydryls originally located in the transmembrane region expose and combine with the fluorescent dye. And then the detector will detect changes in signal enhancement. Therefore, the thermal stability of membrane proteins can be determined according to the temperature (Tm) at the midpoint of changes in signal intensity.
Experimental steps: Upon preliminary purification, the obtained protein solution was transferred into a small concentration tube (100 kd, 500 ul) for concentration (1000 rcf, 12 min, 4° C.). After centrifugation, the concentration tube was taken out and flicked to prevent protein coagulation due to high local concentration. The final concentrated volume was about 50 μl. 117 μl of purified solution (volume is suitable to make the total volume up to 120 μl), 1 μl fluorescent dye cpm (in-house prepared) and 2 μl of concentrated protein solution (the amount of added protein is 3-5 μg according to the calculated concentration of the protein solution and the concentrated volume) were added to 2 ml Ependorf tube and incubated at room temperature for 20 min. And then the mixture was added to the cuvette (Qwan) and put in the testing equipment Cary, wherein the surface of the frosted glass faced out. The temperature was set in the range of 4-90° C. with 1° C. increase per minute and the program was run. Tm value can be obtained by processing the data and graph with a mapping software and can be used to compare the difference of protein thermal stability under different conditions.

CCR5 = CCR5 (Homo sapiens (Human), UniProt P51681); assay: Calcium flux inhibition experiment; assay type: cell-based; details: for IC50: HEK293/CCR5-Gα16 cell line, calcium flux, read-out: CCR5 IC50; for calcium influx inhibition effect in words, versus positive control compounds: conclusion from Table 1
[1] = rat, in vivo
Procedure: The administration volume was 10 mL/kg and drug was formulated with DMSO/Tween 80/physiological saline (5:5:90, v/v/v). […] 2 h after dosing, the rats ate together.
At above time points, 0.3 ml of venous blood was taken from retrobulbar venous plexus of the rat and loaded into EDTA-2K anticoagulative tube. After centrifuged at 11000 rpm for 5 mm, the plasma was separated and frozen at −20° C. in a refrigerator.
The concentration of each compound in rat plasma was determined by LC/MS/MS.
The pharmacokinetic parameters after administration were calculated by using non-compartment model of WinNonlin 5.3 software (Pharsight Corporation, USA).

CYP3A4-M = CYP3A4-M (Homo sapiens (Human), UniProt P08684); assay: CYP450 inhibition activity assay (Vivid kit) CYP3A4-M; details: CYP450 subtype (μM) 3A4-M (IC50)
Procedure: (§1) VividR CYP450 Screening Kits can be used to evaluate the effects on CYP450 subtypes (CYP1A2, CYP2D6, CYP2C9, CYP2C19, CYP3A4-T and CYP3A4-M) and the substrate VividR in the kit can be metabolizd to a product which can emit strong fluorescence in an aqueous solution by specific CYP450 enzymes.
(§2) 1. The compounds to be tested and positive compound were added to corresponding wells and DMSO was added to control wells.
(§3) 2. CYP450 enzyme was added to the compounds to be tested, positive compound and DMSO control wells. The enzyme dilution was used to replace enzyme and added to DMSO wells as test background. The mixture was vibrated and mixed for 1 minute, and then incubated at room temperature for 20 minutes.
(§4) 3. NADP^+ regeneration system and the substrate were added to initiate the reaction and incubated at room temperature for 60 minutes.

CYP3A4-T = CYP3A4-T (Homo sapiens (Human), UniProt P08684); assay: CYP450 inhibition activity assay (Vivid kit) CYP3A4-T; details: CYP450 subtype (μM) 3A4-T (IC50)
Procedure: as §1, §2, §3, §4

CYP2C9 = CYP2C9 (Homo sapiens (Human), UniProt P11712); assay: CYP450 inhibition activity assay (Vivid kit) CYP2C9; assay type: in vitro ADME; details: CYP450 subtype (μM) 2C9 (IC50)
CYP2D6 = CYP2D6 (Homo sapiens (Human), UniProt P10635); assay: CYP450 inhibition activity assay (Vivid kit) CYP2D6; assay type: in vitro ADME; details: CYP450 subtype (μM) 2D6 (IC50)
CYP2C19 = CYP2C19 (Homo sapiens (Human), UniProt P33261); assay: CYP450 inhibition activity assay (Vivid kit) CYP2C19; assay type: in vitro ADME; details: CYP450 subtype (μM) 2C19 (IC50)
CYP1A2 = CYP1A2 (Homo sapiens (Human), UniProt P05177); assay: CYP450 inhibition activity assay (Vivid kit) CYP1A2; assay type: in vitro ADME; details: CYP450 subtype (μM) 1A2 (IC50)
[2] = Four days subacute toxicity test of rats; assay type: in vivo; details: SD rats; for Clinical observations, clinical pathology detection (hematology and serum biochemistry) and macroscopic morphological observation / weight gain compared with vehicle control group: gavage 4 days, 100 and 1000 mg/kg; for weight gain compared with vehicle control group: some male and female animals; for NOAEL at 4 days: both sexes, rat, in vivo, po, gavage for 4 days, read-out: No Observed Adverse Effect Level (NOAEL)
Excerpt: After compounds 18 and 22 of the present invention were administrated to SD rats through gavage for 4 consecutive days, the toxic reaction was preliminarily assessed to confirm the possible target organ of toxic reaction.
One vehicle control group was set. Each group contained four rats including two male rats and two female rats. During the experiment stage, the animals were daily clinically observated. The body weight was regularly measured. On the 5th day, all animals were subject to pathological examination and gross anatomy.

CYP2D6, sequence (P10635 whole entry): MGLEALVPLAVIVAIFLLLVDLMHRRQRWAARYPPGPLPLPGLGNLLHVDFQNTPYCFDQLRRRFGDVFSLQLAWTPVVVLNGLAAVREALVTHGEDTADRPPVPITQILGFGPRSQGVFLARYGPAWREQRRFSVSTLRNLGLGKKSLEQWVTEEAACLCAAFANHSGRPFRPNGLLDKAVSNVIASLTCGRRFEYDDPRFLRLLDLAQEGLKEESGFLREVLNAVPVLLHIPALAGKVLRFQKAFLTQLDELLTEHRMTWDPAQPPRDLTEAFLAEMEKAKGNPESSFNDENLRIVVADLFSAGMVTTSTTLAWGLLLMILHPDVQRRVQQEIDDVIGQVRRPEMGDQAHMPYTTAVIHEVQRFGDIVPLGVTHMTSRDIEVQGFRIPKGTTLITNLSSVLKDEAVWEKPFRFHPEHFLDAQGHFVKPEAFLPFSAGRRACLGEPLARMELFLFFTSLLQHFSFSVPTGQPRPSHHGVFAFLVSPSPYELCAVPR
CYP2C19, sequence (P33261 whole entry): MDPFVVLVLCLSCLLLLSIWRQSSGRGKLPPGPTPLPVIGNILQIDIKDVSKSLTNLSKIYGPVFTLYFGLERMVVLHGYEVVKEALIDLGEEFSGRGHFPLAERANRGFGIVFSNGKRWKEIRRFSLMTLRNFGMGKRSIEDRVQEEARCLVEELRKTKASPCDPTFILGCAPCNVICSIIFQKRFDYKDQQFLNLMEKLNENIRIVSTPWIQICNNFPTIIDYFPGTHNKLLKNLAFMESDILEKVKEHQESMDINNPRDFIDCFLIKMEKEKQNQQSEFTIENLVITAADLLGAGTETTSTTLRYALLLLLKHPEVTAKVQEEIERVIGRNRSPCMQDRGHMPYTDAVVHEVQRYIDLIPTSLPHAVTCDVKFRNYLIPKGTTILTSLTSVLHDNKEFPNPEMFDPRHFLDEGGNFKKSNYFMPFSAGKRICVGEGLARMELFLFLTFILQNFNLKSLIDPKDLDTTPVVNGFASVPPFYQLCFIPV
CYP3A4-M, sequence (P08684 whole entry): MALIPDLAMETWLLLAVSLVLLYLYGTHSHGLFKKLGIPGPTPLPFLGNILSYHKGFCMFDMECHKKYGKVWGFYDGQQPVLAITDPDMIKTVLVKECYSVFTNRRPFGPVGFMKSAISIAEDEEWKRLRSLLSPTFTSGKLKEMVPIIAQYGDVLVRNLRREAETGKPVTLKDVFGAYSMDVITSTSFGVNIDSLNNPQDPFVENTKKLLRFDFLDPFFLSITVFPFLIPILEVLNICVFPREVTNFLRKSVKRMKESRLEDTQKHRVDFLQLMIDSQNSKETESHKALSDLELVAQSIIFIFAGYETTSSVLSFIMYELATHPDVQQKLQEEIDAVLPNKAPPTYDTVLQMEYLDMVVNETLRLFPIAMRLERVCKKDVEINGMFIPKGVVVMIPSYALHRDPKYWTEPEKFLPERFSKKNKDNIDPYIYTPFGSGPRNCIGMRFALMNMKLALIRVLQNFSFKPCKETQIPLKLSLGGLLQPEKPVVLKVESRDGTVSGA
CYP3A4-T, sequence (P08684 whole entry): as above
CCR5, sequence (P51681 whole entry): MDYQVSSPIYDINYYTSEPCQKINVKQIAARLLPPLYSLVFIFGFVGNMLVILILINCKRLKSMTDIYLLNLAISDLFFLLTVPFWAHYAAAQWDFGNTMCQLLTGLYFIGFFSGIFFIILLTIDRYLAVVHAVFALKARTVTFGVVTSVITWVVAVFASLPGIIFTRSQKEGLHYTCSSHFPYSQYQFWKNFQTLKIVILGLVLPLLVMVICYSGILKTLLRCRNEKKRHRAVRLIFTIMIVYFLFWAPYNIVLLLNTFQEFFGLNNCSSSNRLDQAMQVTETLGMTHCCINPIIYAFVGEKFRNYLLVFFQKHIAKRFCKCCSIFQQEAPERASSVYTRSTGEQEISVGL
CYP2C9, sequence (P11712 whole entry): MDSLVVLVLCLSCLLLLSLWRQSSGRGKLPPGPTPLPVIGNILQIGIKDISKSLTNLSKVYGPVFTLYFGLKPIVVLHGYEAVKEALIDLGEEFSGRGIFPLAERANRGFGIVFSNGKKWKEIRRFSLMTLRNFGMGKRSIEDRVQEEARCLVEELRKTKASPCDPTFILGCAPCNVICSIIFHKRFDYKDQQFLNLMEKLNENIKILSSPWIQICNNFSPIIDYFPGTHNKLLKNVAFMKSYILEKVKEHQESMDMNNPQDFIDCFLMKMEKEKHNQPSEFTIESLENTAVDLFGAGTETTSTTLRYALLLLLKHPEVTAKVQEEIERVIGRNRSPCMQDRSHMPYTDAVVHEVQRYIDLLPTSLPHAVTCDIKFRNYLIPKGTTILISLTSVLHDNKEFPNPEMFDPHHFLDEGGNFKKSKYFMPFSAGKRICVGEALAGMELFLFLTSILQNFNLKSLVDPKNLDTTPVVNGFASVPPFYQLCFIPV
CYP1A2, sequence (P05177 whole entry): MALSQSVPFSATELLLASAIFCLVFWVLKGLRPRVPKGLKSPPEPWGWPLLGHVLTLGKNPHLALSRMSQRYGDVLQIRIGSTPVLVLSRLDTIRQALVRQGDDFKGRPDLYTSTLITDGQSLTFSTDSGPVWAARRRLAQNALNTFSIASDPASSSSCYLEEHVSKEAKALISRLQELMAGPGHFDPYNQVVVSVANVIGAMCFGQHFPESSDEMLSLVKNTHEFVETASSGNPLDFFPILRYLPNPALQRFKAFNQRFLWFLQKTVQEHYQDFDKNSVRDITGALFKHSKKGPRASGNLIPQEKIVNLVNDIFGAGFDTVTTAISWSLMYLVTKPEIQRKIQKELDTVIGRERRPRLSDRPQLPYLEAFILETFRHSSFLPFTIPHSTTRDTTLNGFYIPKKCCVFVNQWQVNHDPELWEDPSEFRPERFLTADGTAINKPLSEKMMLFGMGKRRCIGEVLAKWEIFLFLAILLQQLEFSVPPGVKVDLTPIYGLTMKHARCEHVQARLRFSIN

| SMILES | Tm (° C.) (CCR5 protein) | IC50 (CCR5) | calcium influx inhibition effect in words, versus positive control compounds (CCR5) | CLz ([1]; male, 10 mg/kg) | AUC0-t ng/mL * h ([1]; male, po, 20 mg/kg) | IC50 (CYP3A4-M) | IC50 (CYP3A4-T) | IC50 (CYP2C9) | IC50 (CYP2D6) | IC50 (CYP2C19) | IC50 (CYP1A2) | AUC0-t ng/mL * h ([1]; male, 10 mg/kg) | CLz ([1]; 10 mg/kg) | Clinical observations, clinical pathology detection (hematology and serum biochemistry) and macroscopic morphological observation [2] | weight gain compared with vehicle control group [2] | NOAEL at 4 days [2] | protein stability effect in words, versus positive control compound (CCR5 protein) |
| --- | --- | --- | --- | --- | --- | --- | --- | --- | --- | --- | --- | --- | --- | --- | --- | --- | --- |
| Cc1nnc(C(C)C)n1C1CC2CCC(C1)N2CC[C@H](NC(=O)C1CCC(F)(F)CC1)c1cccs1 (stereo partly drawn) [Compound 14, 4,4-difluoro-N-[(1S)-3-[exo-3-(3-isopropyl-5-methyl-4H-1,2,4-triazol-4-yl)-8-azabicyclo[3.2.1]octane-8-yl]-1-(thiophen-2-yl)propyl]cyclohexane-1-carboxamide] | 68.10 °C | 2.33 nM | better than the positive control compounds | 1.42 L/h/kg | 1108 ng·h/mL |  |  |  |  |  |  |  |  |  |  |  |  |
| Cc1ccc([C@H](CCN2C3CCC2CC(n2c(C)nnc2C(C)C)C3)NC(=O)C2CCC(F)(F)CC2)s1 (stereo partly drawn) [Compound 29, 4,4-difluoro-N-[(1S)-3-[exo-3-(3-isopropyl-5-methyl-4H-1,2,4-triazol-4-yl)-8-azabicyclo[3.2.1]octane-8-yl]-1-(5-methylthiophen-2-yl)propyl]cyclohexane-1-carboxamide] |  |  |  |  | 1870.7 ng·h/mL | 10.9 µM | 23.4 µM | > 25 µM | > 25 µM | > 25 µM | > 25 µM | 2330.2 ng·h/mL | 4.29 L/h/kg |  |  |  |  |
| Cc1nnc(C(C)C)n1C1CC2CCC(C1)N2CC[C@H](NC(=O)C1CCCC1)c1cccs1 (stereo partly drawn) [Compound 18, N-[(1S)-3-[exo-3-(3-isopropyl-5-methyl-4H-1,2,4-triazol-4-yl)-8-azabicyclo[3.2.1]octane-8-yl]-1-(thiophen-2-yl)propyl]cyclopentane-1-carboxamide] | 71.73 °C | 3.73 nM | better than the positive control compounds | 6.24 L/h/kg | 2801.1 ng·h/mL | > 25 µM | > 25 µM | > 25 µM | 16.8 µM | > 25 µM | > 25 µM |  |  | no significant drug-related changes | increased slowly or exhibited negative growth | 1000 mg/kg | comparable with the positive control compound |
| Cc1nnc(C(C)C)n1C1CC2CCC(C1)N2CC[C@H](NC(=O)C1CCCCC1)c1cccs1 (stereo partly shown) [Compound 16] | 71.32 °C | 2.23 nM | better than the positive control compounds | 1.96 L/h/kg | 1512.3 ng·h/mL | 12.3 µM | 21.7 µM | > 25 µM | 15.1 µM | > 25 µM | > 25 µM |  |  |  |  |  | comparable with the positive control compound |
| Cc1nnc(C(C)C)n1C1CC2CCC(C1)N2CC[C@H](NC(=O)C1CCC(F)(F)CC1)c1ccsc1 (stereo partly drawn) [Compound 22, 4,4-difluoro-N-[(1S)-3-[exo-3-(3-isopropyl-5-methyl-4H-1,2,4-triazol-4-yl)-8-azabicyclo[3.2.1]octane-8-yl]-1-(thiophen-3-yl)propyl]cyclohexane-1-carboxamide] | 68.21 °C | 1.05 nM | better than the positive control compounds | 2.40 L/h/kg | 1206 ng·h/mL | > 25 µM | > 25 µM | > 25 µM | > 25 µM | > 25 µM | > 25 µM |  |  | no significant drug-related changes | increased slowly or exhibited negative growth | 1000 mg/kg |  |
| Cc1nnc(C(C)C)n1C1CCN(CC[C@H](NC(=O)C2CCCC2)c2cccs2)CC1 [Compound 17, N-[(1S)-3-[4-(3-isopropyl-5-methyl-4H-1,2,4-triazol-4-yl)-piperidin-1-yl]-1-(thiophen-2-yl)propyl]cyclopentane-1-carboxamide] | 66.97 °C | 2.55 nM | better than the positive control compounds |  |  | > 25 µM | > 25 µM | > 25 µM | > 25 µM | > 25 µM | > 25 µM |  |  |  |  |  |  |
